Experimental data taken from publication PMC5218480 (PLoS ONE, 2017).

Test system: MV-4-11 cells
Experiment: Gene expression microarray analysis (Affymetrix PrimeView) and GSEA
Assay type: cell-based, human
Set-up: RFU PODN (11730768_x_at) / Fold change /veh PODN (11730768_x_at) / RFU LINC00158 (11744669_a_at) / Fold change /veh LINC00158 (11744669_a_at) / RFU DUSP10 (11751237_a_at) / Fold change /veh DUSP10 (11751237_a_at) / RFU ID3 (11757404_x_at) / Fold change /veh ID3 (11757404_x_at) / RFU PLEKHG5 (11737974_s_at) / Fold change /veh PLEKHG5 (11737974_s_at) / RFU LRRC4B (11730491_at) / Fold change /veh LRRC4B (11730491_at) / RFU GIMAP4 (11747438_a_at) / Fold change /veh GIMAP4 (11747438_a_at) / RFU KRT8 (11758183_x_at) / Fold change /veh KRT8 (11758183_x_at) / RFU CNN1 (11734310_a_at) / Fold change /veh CNN1 (11734310_a_at) / RFU VPS37D (11726825_at) / Fold change /veh VPS37D (11726825_at) / RFU C10orf10 (11716522_x_at) / Fold change /veh C10orf10 (11716522_x_at) / RFU KIR2DL2 /// KIR2DL4 /// KIR2DL5A /// KIR2DL5B /// KIR2DS1 /// KIR2DS2 /// KIR2DS3 /// KIR2DS4 /// KIR3DL3 /// KIR3DL3 /// KIR3DS1 (11738374_at) / Fold change /veh KIR2DL2 /// KIR2DL4 /// KIR2DL5A /// KIR2DL5B /// KIR2DS1 /// KIR2DS2 /// KIR2DS3 /// KIR2DS4 /// KIR3DL3 /// KIR3DL3 /// KIR3DS1 (11738374_at) / RFU C1QL1 (11718748_at) / Fold change /veh C1QL1 (11718748_at) / RFU TMPRSS4 (11747572_a_at) / Fold change /veh TMPRSS4 (11747572_a_at) / RFU HAMP (11756126_x_at) / Fold change /veh HAMP (11756126_x_at) / RFU RNFT2 (11725882_a_at) / Fold change /veh RNFT2 (11725882_a_at) / RFU NR4A2 (11747474_a_at) / Fold change /veh NR4A2 (11747474_a_at) / RFU ABCC12 (11746883_a_at) / Fold change /veh ABCC12 (11746883_a_at) / RFU TMEM136 (11760407_x_at) / Fold change /veh TMEM136 (11760407_x_at) / RFU CLDN22 /// WWC2 (11732394_at) / Fold change /veh CLDN22 /// WWC2 (11732394_at) / RFU HLA-DPB1 (11760878_x_at) / Fold change /veh HLA-DPB1 (11760878_x_at) / RFU SPINT1 (11716480_a_at) / Fold change /veh SPINT1 (11716480_a_at) / RFU GAP43 (11754022_s_at) / Fold change /veh GAP43 (11754022_s_at) / RFU A4GNT (11735810_at) / Fold change /veh A4GNT (11735810_at) / RFU PRB3 (11715151_x_at) / Fold change /veh PRB3 (11715151_x_at) / RFU TUBB4B (11761932_at) / Fold change /veh TUBB4B (11761932_at) / RFU CAPN14 (11732068_a_at) / Fold change /veh CAPN14 (11732068_a_at) / RFU TMCC2 (11721928_a_at) / Fold change /veh TMCC2 (11721928_a_at) / RFU IRGQ (11745062_a_at) / Fold change /veh IRGQ (11745062_a_at) / RFU FAM174B (11720279_a_at) / Fold change /veh FAM174B (11720279_a_at) / RFU TMPRSS4 (11748680_a_at) / Fold change /veh TMPRSS4 (11748680_a_at) / RFU FAM212B (11763350_a_at) / Fold change /veh FAM212B (11763350_a_at) / RFU PLEKHG5 (11743358_a_at) / Fold change /veh PLEKHG5 (11743358_a_at) / RFU ZSCAN30 (11745921_a_at) / Fold change /veh ZSCAN30 (11745921_a_at) / RFU CMKLR1 (11741424_a_at) / Fold change /veh CMKLR1 (11741424_a_at) / RFU LOC101060620 /// MAPK8IP1 (11723275_at) / Fold change /veh LOC101060620 /// MAPK8IP1 (11723275_at) / RFU SPTSSB (11747773_x_at) / Fold change /veh SPTSSB (11747773_x_at) / RFU PRSS12 (11739890_at) / Fold change /veh PRSS12 (11739890_at) / RFU BIN1 (11741810_x_at) / Fold change /veh BIN1 (11741810_x_at) / RFU WNT11 (11732464_a_at) / Fold change /veh WNT11 (11732464_a_at) / RFU C10orf10 (11716521_a_at) / Fold change /veh C10orf10 (11716521_a_at) / RFU C5orf56 (11738089_at) / Fold change /veh C5orf56 (11738089_at) / RFU CYB561 (11721691_x_at) / Fold change /veh CYB561 (11721691_x_at) / RFU ANKRD19P (11752326_a_at) / Fold change /veh ANKRD19P (11752326_a_at) / RFU OR2T12 /// OR2T33 /// OR2T8 (11738714_s_at) / Fold change /veh OR2T12 /// OR2T33 /// OR2T8 (11738714_s_at) / RFU VCAN (11748164_a_at) / Fold change /veh VCAN (11748164_a_at) / RFU JSRP1 (11732532_at) / Fold change /veh JSRP1 (11732532_at) / RFU KRTAP10-11 (11738290_x_at) / Fold change /veh KRTAP10-11 (11738290_x_at) / RFU MYO3A (11730013_a_at) / Fold change /veh MYO3A (11730013_a_at) / RFU EBF3 (11725865_a_at) / Fold change /veh EBF3 (11725865_a_at) / RFU CAMK2N1 (11719241_x_at) / Fold change /veh CAMK2N1 (11719241_x_at) / RFU C5orf56 (11738088_a_at) / Fold change /veh C5orf56 (11738088_a_at) / RFU OLFML3 (11715873_a_at) / Fold change /veh OLFML3 (11715873_a_at) / RFU LOC100653217 /// NTM (11731650_a_at) / Fold change /veh LOC100653217 /// NTM (11731650_a_at) / RFU MAPK11 (11762145_a_at) / Fold change /veh MAPK11 (11762145_a_at) / RFU FIZ1 (11724087_x_at) / Fold change /veh FIZ1 (11724087_x_at) / RFU OASL (11726364_x_at) / Fold change /veh OASL (11726364_x_at) / RFU SOX15 (11748057_x_at) / Fold change /veh SOX15 (11748057_x_at) / RFU CD79A (11719716_a_at) / Fold change /veh CD79A (11719716_a_at) / RFU HIST1H1D (11736915_at) / Fold change /veh HIST1H1D (11736915_at) / RFU CASKIN2 (11723855_a_at) / Fold change /veh CASKIN2 (11723855_a_at) / RFU LOC730098 (11760151_x_at) / Fold change /veh LOC730098 (11760151_x_at) / RFU OR4N2 (11742367_at) / Fold change /veh OR4N2 (11742367_at) / RFU PRRT2 (11749266_a_at) / Fold change /veh PRRT2 (11749266_a_at) / RFU SNX32 (11753110_a_at) / Fold change /veh SNX32 (11753110_a_at) / RFU CDHR5 (11726645_a_at) / Fold change /veh CDHR5 (11726645_a_at) / RFU RCAN1 (11760418_a_at) / Fold change /veh RCAN1 (11760418_a_at) / RFU FAM167A (11723789_a_at) / Fold change /veh FAM167A (11723789_a_at) / RFU FAM26E (11764081_at) / Fold change /veh FAM26E (11764081_at) / RFU ISYNA1 (11749810_s_at) / Fold change /veh ISYNA1 (11749810_s_at) / RFU ACY1 (11761880_at) / Fold change /veh ACY1 (11761880_at) / RFU 11764098_at / Fold change /veh 11764098_at / RFU SAMD14 (11745864_x_at) / Fold change /veh SAMD14 (11745864_x_at) / RFU NPB (11741838_a_at) / Fold change /veh NPB (11741838_a_at) / RFU TMPRSS6 (11731388_a_at) / Fold change /veh TMPRSS6 (11731388_a_at) / RFU KRTAP10-2 (11738614_at) / Fold change /veh KRTAP10-2 (11738614_at) / RFU ARHGAP8 /// PRR5-ARHGAP8 (11727945_x_at) / Fold change /veh ARHGAP8 /// PRR5-ARHGAP8 (11727945_x_at) / RFU KRTAP5-7 /// NADSYN1 (11734609_at) / Fold change /veh KRTAP5-7 /// NADSYN1 (11734609_at) / RFU RASL12 (11751679_a_at) / Fold change /veh RASL12 (11751679_a_at) / RFU CDKN2B (11736163_a_at) / Fold change /veh CDKN2B (11736163_a_at) / RFU PRF1 (11729649_at) / Fold change /veh PRF1 (11729649_at) / RFU, ZNF638 /// ZNF638-IT1 / Fold change vs veh, ZNF638 /// ZNF638-IT1 / RFU, PANK3 / Fold change vs veh, PANK3 / RFU, SH3YL1 / Fold change vs veh, SH3YL1 / RFU, ZEB2 / Fold change vs veh, ZEB2 / RFU, NRIP1 / Fold change vs veh, NRIP1 / RFU, PTTG1IP / Fold change vs veh, PTTG1IP / RFU, CAPN2 / Fold change vs veh, CAPN2 / RFU, MED14 / Fold change vs veh, MED14 / RFU, SNORA58 / Fold change vs veh, SNORA58 / RFU, C1orf63 / Fold change vs veh, C1orf63 / RFU, LRRFIP1 / Fold change vs veh, LRRFIP1 / RFU, NDUFAF7 / Fold change vs veh, NDUFAF7 / RFU, SLC12A2 / Fold change vs veh, SLC12A2 / RFU, IBTK / Fold change vs veh, IBTK / RFU, ESF1 / Fold change vs veh, ESF1 / Fold change vs veh, TMEM50B / RFU, TAOK1 / Fold change vs veh, TAOK1 / RFU, ACBD3 / Fold change vs veh, ACBD3 / RFU, TMA16 / Fold change vs veh, TMA16 / RFU, RWDD3 / Fold change vs veh, RWDD3 / RFU, BCAT1 / Fold change vs veh, BCAT1 / RFU, EDEM3 / Fold change vs veh, EDEM3 / RFU, TMEM33 / Fold change vs veh, TMEM33 / RFU, WDR75 / Fold change vs veh, WDR75 / RFU, AHCTF1 / Fold change vs veh, AHCTF1 / RFU, TFRC / Fold change vs veh, TFRC / RFU, ZDHHC17 / Fold change vs veh, ZDHHC17 / RFU, NOM1 / Fold change vs veh, NOM1 / RFU, ARL8B / Fold change vs veh, ARL8B / RFU, ZBTB11 / Fold change vs veh, ZBTB11 / RFU, TAMM41 / Fold change vs veh, TAMM41 / RFU, KIAA1704 /// LOC100996395 / Fold change vs veh, KIAA1704 /// LOC100996395 / RFU, ING1 / Fold change vs veh, ING1 / RFU, TRMT61B / Fold change vs veh, TRMT61B / RFU, FUBP3 / Fold change vs veh, FUBP3 / RFU, TP53 / Fold change vs veh, TP53 / RFU, TNKS2 / Fold change vs veh, TNKS2 / RFU, ZFP14 / Fold change vs veh, ZFP14 / RFU, ACTR2 / Fold change vs veh, ACTR2 / RFU, PPP3R1 / Fold change vs veh, PPP3R1 / RFU, PIK3R1 / Fold change vs veh, PIK3R1 / RFU, HNRNPA1 / Fold change vs veh, HNRNPA1 / RFU, RNF170 / Fold change vs veh, RNF170 / RFU, ZNF28 / Fold change vs veh, ZNF28 / RFU, RNGTT / Fold change vs veh, RNGTT / RFU, OGT / Fold change vs veh, OGT / RFU, BRD1 / Fold change vs veh, BRD1 / RFU, MARS / Fold change vs veh, MARS / RFU, ZNF655 / Fold change vs veh, ZNF655 / RFU, FAHD1 / Fold change vs veh, FAHD1 / RFU, BDP1 / Fold change vs veh, BDP1 / RFU, LRRCC1 / Fold change vs veh, LRRCC1 / RFU, ARID1A / Fold change vs veh, ARID1A / RFU, ZNF146 / Fold change vs veh, ZNF146 / RFU, ZNF330 / Fold change vs veh, ZNF330 / RFU, GPN3 / Fold change vs veh, GPN3 / RFU, C9orf123 / Fold change vs veh, C9orf123 / RFU, N4BP2L2 / Fold change vs veh, N4BP2L2 / RFU, ARFIP1 / Fold change vs veh, ARFIP1 / RFU, FAM179B / Fold change vs veh, FAM179B / RFU, BCL10 / Fold change vs veh, BCL10 / RFU, UHRF1BP1L / Fold change vs veh, UHRF1BP1L / RFU, BET1 / Fold change vs veh, BET1 / RFU, CNOT2 / Fold change vs veh, CNOT2 / RFU, ZNF268 / Fold change vs veh, ZNF268 / Fold change vs veh, ZNF507 / RFU, DGCR2 / Fold change vs veh, DGCR2 / RFU, WDSUB1 / Fold change vs veh, WDSUB1 / Fold change vs veh, HSP90B1 /// MIR3652 / RFU, ADSS / Fold change vs veh, ADSS / RFU, GK / Fold change vs veh, GK / RFU, ZNF148 / Fold change vs veh, ZNF148 / RFU, TAF9 / Fold change vs veh, TAF9 / RFU, SLC1A5 / Fold change vs veh, SLC1A5 / RFU, SLMO2 / Fold change vs veh, SLMO2 / RFU, ABCC4 / Fold change vs veh, ABCC4 / RFU, LOC101060439 /// RAP1B / Fold change vs veh, LOC101060439 /// RAP1B / RFU, RFX7 / Fold change vs veh, RFX7 / RFU, GTPBP10 / Fold change vs veh, GTPBP10 / RFU, CNEP1R1 / Fold change vs veh, CNEP1R1 / RFU, BIVM-ERCC5 /// ERCC5 / Fold change vs veh, BIVM-ERCC5 /// ERCC5 / RFU, ILF3 / Fold change vs veh, ILF3 / RFU 11762660_at / Fold change /veh 11762660_at / RFU VCAN (11757783_s_at) / Fold change /veh VCAN (11757783_s_at) / RFU DDX43 (11728927_at) / Fold change /veh DDX43 (11728927_at) / RFU KRT8 (11758188_x_at) / Fold change /veh KRT8 (11758188_x_at) / RFU NKD1 (11759106_at) / Fold change /veh NKD1 (11759106_at) / RFU SRD5A1 (11742802_a_at) / Fold change /veh SRD5A1 (11742802_a_at) / RFU TPSAB1 /// TPSB2 (11721975_s_at) / Fold change /veh TPSAB1 /// TPSB2 (11721975_s_at) / RFU GSTM3 (11746129_a_at) / Fold change /veh GSTM3 (11746129_a_at) / RFU IL23R (11737362_x_at) / Fold change /veh IL23R (11737362_x_at) / RFU TMEM51 (11727254_a_at) / Fold change /veh TMEM51 (11727254_a_at) / RFU PIWIL2 (11732686_x_at) / Fold change /veh PIWIL2 (11732686_x_at) / RFU ORM1 (11744905_x_at) / Fold change /veh ORM1 (11744905_x_at) / RFU CCDC152 (11743942_at) / Fold change /veh CCDC152 (11743942_at) / RFU ECM1 (11717891_a_at) / Fold change /veh ECM1 (11717891_a_at) / RFU IL23R (11748794_a_at) / Fold change /veh IL23R (11748794_a_at) / RFU TNFAIP8L3 (11732012_x_at) / Fold change /veh TNFAIP8L3 (11732012_x_at) / RFU MBOAT4 (11741988_at) / Fold change /veh MBOAT4 (11741988_at) / RFU 11764193_at / Fold change /veh 11764193_at / RFU TMEM53 (11763286_at) / Fold change /veh TMEM53 (11763286_at) / RFU MAGEB2 (11727129_at) / Fold change /veh MAGEB2 (11727129_at) / RFU TMEM200A (11744735_a_at) / Fold change /veh TMEM200A (11744735_a_at) / RFU CCDC152 (11751479_a_at) / Fold change /veh CCDC152 (11751479_a_at) / RFU FAM211A (11726209_a_at) / Fold change /veh FAM211A (11726209_a_at) / RFU RGS16 (11746705_a_at) / Fold change /veh RGS16 (11746705_a_at) / RFU VCAN (11755009_s_at) / Fold change /veh VCAN (11755009_s_at) / RFU RHOB (11743442_s_at) / Fold change /veh RHOB (11743442_s_at) / RFU RGS16 (11720943_a_at) / Fold change /veh RGS16 (11720943_a_at) / RFU RGS16 (11720944_at) / Fold change /veh RGS16 (11720944_at) / RFU, VPS4B / Fold change vs veh, VPS4B / RFU, CREB1 / Fold change vs veh, CREB1 / RFU, DNAJC13 / Fold change vs veh, DNAJC13 / RFU, GNAQ / Fold change vs veh, GNAQ / RFU, CDK5R1 / Fold change vs veh, CDK5R1 / RFU, ZRANB3 / Fold change vs veh, ZRANB3 / RFU, CUL4A / Fold change vs veh, CUL4A / RFU, CCNY / Fold change vs veh, CCNY / RFU, UFL1 / Fold change vs veh, UFL1 / RFU, COG3 / Fold change vs veh, COG3 / RFU, DIAPH2 / Fold change vs veh, DIAPH2 / RFU, SKA2 / Fold change vs veh, SKA2 / RFU, AFF3 / Fold change vs veh, AFF3 / RFU, LMF1 / Fold change vs veh, LMF1 / RFU, IPO11 / Fold change vs veh, IPO11 / RFU, DFFB / Fold change vs veh, DFFB / RFU, FOXP1 / Fold change vs veh, FOXP1 / RFU, CARD8 / Fold change vs veh, CARD8 / RFU, STRN3 / Fold change vs veh, STRN3 / RFU, ADK / Fold change vs veh, ADK / RFU, RASSF2 / Fold change vs veh, RASSF2 / RFU, WIPF1 / Fold change vs veh, WIPF1 / RFU, LARP1B / Fold change vs veh, LARP1B / RFU, RASA1 / Fold change vs veh, RASA1 / RFU, RB1 / Fold change vs veh, RB1 / RFU, PPFIA1 / Fold change vs veh, PPFIA1 / RFU, MAT2A / Fold change vs veh, MAT2A / RFU, CCT5 / Fold change vs veh, CCT5 / RFU, WDR92 / Fold change vs veh, WDR92 / RFU, CUX1 / Fold change vs veh, CUX1 / RFU, TTC7A / Fold change vs veh, TTC7A / RFU, TMEM135 / Fold change vs veh, TMEM135 / RFU, DEPTOR / Fold change vs veh, DEPTOR / RFU, CPM / Fold change vs veh, CPM / RFU, DNAJB6 / Fold change vs veh, DNAJB6 / RFU, CACNA2D3 / Fold change vs veh, CACNA2D3 / RFU, DTX4 / Fold change vs veh, DTX4 / RFU, TFCP2 / Fold change vs veh, TFCP2 / RFU, GMCL1 /// GMCL1P1 / Fold change vs veh, GMCL1 /// GMCL1P1 / RFU, AEBP2 / Fold change vs veh, AEBP2 / RFU, SNHG1 /// SNORD22 /// SNORD25 /// SNORD26 /// SNORD27 /// SNORD28 /// SNORD29 /// SNORD31 / Fold change vs veh, SNHG1 /// SNORD22 /// SNORD25 /// SNORD26 /// SNORD27 /// SNORD28 /// SNORD29 /// SNORD31 / Fold change (Aza/veh), C12orf56 (ProbeSet 11735607_a_at) / Fold change (ACY-1035/veh), C12orf56 (ProbeSet 11735607_a_at) / Fold change (Aza/veh), FGFR1OP (ProbeSet 11751329_s_at) / Fold change (ACY-1035/veh), FGFR1OP (ProbeSet 11751329_s_at) / Fold change (Aza/veh), VPS36 (ProbeSet 11739960_a_at) / Fold change (ACY-1035/veh), VPS36 (ProbeSet 11739960_a_at) / RFU SYPL1 (11715823_x_at) / Fold change /veh SYPL1 (11715823_x_at) / RFU IGFBP7 (11715501_s_at) / Fold change /veh IGFBP7 (11715501_s_at) / RFU REEP3 (11722064_at) / Fold change /veh REEP3 (11722064_at) / RFU IGLL1 (11728026_x_at) / Fold change /veh IGLL1 (11728026_x_at): dose or concentration left out as unconfirmed
Conditions: ProbeSet 11733108_at; LIST D

Compound: Nc1ncn([C@@H]2O[C@H](CO)[C@@H](O)[C@H]2O)c(=O)n1 [azacitidine]
- Fold change vs veh, GNAQ: 0.77
